Experimental data as given in patent publication US10961202B2, “Bis-benzimidazole compounds and methods of using the same” (THE SCRIPPS RESEARCH INSTITUTE, priority 2017, dated 2021).

tested on: r(CUG)12-MBNL1 complex; test: Inhibition of the r(CUG)12-MBNL1 complex measured by TR-FRET; type: biochemical; conditions: Table M; 80 nM RNA, 60 nM MBNL1-His6

Compound	IC50 [µM]
c1cc2nc(-c3ccc(-c4nc5ccc(OCCN6CCOCC6)cc5[nH]4)cc3)[nH]c2cc1OCCN1CCOCC1 [Compound 186]	> 200
CCN(CC)CCCOc1ccc2nc(-c3ccc(-c4nc5ccc(OCCCN(CC)CC)cc5[nH]4)cc3)[nH]c2c1 [Compound 187]	58.9
CCN(CC)CCCOc1ccc2nc(-c3ccc(-c4nc5ccc(O)cc5[nH]4)cc3)[nH]c2c1 [Compound 188]	46.9
COc1ccc2nc(-c3ccc(-c4nc5ccc(OC)cc5[nH]4)cc3)[nH]c2c1 [Compound 189, 1,4-Bis(6-methoxy-1H-benzo[d]imidazol-2-yl)benzene]	> 200
Oc1ccc2nc(-c3ccc(-c4nc5ccc(O)cc5[nH]4)cc3)[nH]c2c1 [Compound 190, 2,2′-(1,4-phenylene)bis(1H-benzo[d]imidazol-6-ol)]	179
c1cc2nc(-c3ccc(-c4nc5ccc(OCCN6CCCCC6)cc5[nH]4)cc3)[nH]c2cc1OCCN1CCCCC1 [Compound 191]	100
CN(C)CCCCCOc1ccc2nc(-c3ccc(-c4nc5ccc(O)cc5[nH]4)cc3)[nH]c2c1 [Compound 193]	36.7
CN1CCC(COc2ccc3nc(-c4ccc(-c5nc6ccc(O)cc6[nH]5)cc4)[nH]c3c2)CC1 [Compound 194, 2-(4-(6-((1-methylpiperidin-4-yl)methoxy)-1H-benzo[d]imidazol-2-yl)phenyl)-1H-benzo[d]imidazol-6-ol]	39
Oc1ccc2nc(-c3ccc(-c4nc5ccc(OCCN6CCCCC6)cc5[nH]4)cc3)[nH]c2c1 [Compound 195]	104
CN1CCC[C@H]1COc1ccc2nc(-c3ccc(-c4nc5ccc(O)cc5[nH]4)cc3)[nH]c2c1 [Compound 196]	106
CN(C)CCCCOc1ccc2nc(-c3ccc(-c4nc5ccc(OCCCCN(C)C)cc5[nH]4)cc3)[nH]c2c1 [Compound 197, 4,4′-((1,4-phenylenebis(1H-benzo[d]imidazole-2,6-diyl))bis(oxy))bis(N,N-dimethylbutan-1-amine)]	33.6
CN1CCC[C@H]1COc1ccc2nc(-c3ccc(-c4nc5ccc(OC[C@@H]6CCCN6C)cc5[nH]4)cc3)[nH]c2c1 [Compound 199]	47.8
CN(C)CCCCOc1ccc2nc(-c3ccc(-c4nc5ccc(O)cc5[nH]4)cc3)[nH]c2c1 [Compound 200, 2-(4-(6-(4-(dimethylamino)butoxy)-1H-benzo[d]imidazol-2-yl)phenyl)-1H-benzo[d]imidazol-6-ol]	32.1
c1cc2nc(-c3ccc(-c4nc5ccc(OCCN6CCCC6)cc5[nH]4)cc3)[nH]c2cc1OCCN1CCCC1 [Compound 203]	103
Oc1ccc2nc(-c3ccc(-c4nc5ccc(OCCN6CCCC6)cc5[nH]4)cc3)[nH]c2c1 [Compound 204]	129
CC(=O)NCCN1CCN(CCNC(=O)c2ccc3nc(-c4ccc(-c5nc6ccc(C(=O)NCCN7CCCCC7)cc6[nH]5)cc4)[nH]c3c2)CC1 [Compound 206]	64.4
CN(C)CCCSCCOc1ccc2nc(-c3ccc(-c4nc5ccc(OCCSCCCN(C)C)cc5[nH]4)cc3)[nH]c2c1 [Compound 207]	48.6
CN1CCC(Oc2ccc3nc(-c4ccc(-c5nc6ccc(OC7CCN(C)CC7)cc6[nH]5)cc4)[nH]c3c2)CC1 [Compound 208]	101
CN(C)CCCCCCOc1ccc2nc(-c3ccc(-c4nc5ccc(O)cc5[nH]4)cc3)[nH]c2c1 [Compound 209]	19.4
CN(C)CCSCCOc1ccc2nc(-c3ccc(-c4nc5ccc(OCCSCCN(C)C)cc5[nH]4)cc3)[nH]c2c1 [Compound 210]	33.3
CN(C)CCN(C)CCOc1ccc2nc(-c3ccc(-c4nc5ccc(OCCN(C)CCN(C)C)cc5[nH]4)cc3)[nH]c2c1 [Compound 211]	112
CN(C)Cc1cccc(COc2ccc3nc(-c4ccc(-c5nc6ccc(OCc7cccc(CN(C)C)c7)cc6[nH]5)cc4)[nH]c3c2)c1 [Compound 213, 1,1′-((((1,4-phenylenebis(1H-benzo[d]imidazole-2,6-diyl))bis(oxy))bis(methylene))bis(3,1-phenylene))bis(N,N-dimethylmethanamine)]	22.8
CN(C)CCCOc1cccc2nc(-c3ccc(-c4nc5cccc(OCCCN(C)C)c5[nH]4)cc3)[nH]c12 [Compound 215, 3,3′-((2,2′-(1,4-phenylene)bis(1H-benzo[d]imidazole-7,2-diyl))bis(oxy))bis(N,N-dimethylpropan-1-amine)]	20.5

Compound	IC50 [µM]
CN(C)CCCOc1cccc2nc(-c3ccc(-c4nc5cccc(O)c5[nH]4)cc3)[nH]c12 [Compound 216, 2-(4-(7-(3-(dimethylamino)propoxy)-1H-benzo[d]imidazol-2-yl)phenyl)-1H-benzo[d]imidazol-7-ol]	125
CN(C)Cc1ccc(COc2ccc3nc(-c4ccc(-c5nc6ccc(OCc7ccc(CN(C)C)cc7)cc6[nH]5)cc4)[nH]c3c2)cc1 [Compound 217]	51.9
CN(C)C[C@H]1CC[C@H](COc2ccc3nc(-c4ccc(-c5nc6ccc(OC[C@H]7CC[C@H](CN(C)C)CC7)cc6[nH]5)cc4)[nH]c3c2)CC1 [Compound 218, 1,1′-((1r,1′r,4r,4′r)-(((1,4-phenylenebis(1H-benzo[d]imidazole-2,6-diyl))bis(oxy))bis(methylene))bis(cyclohexane-4,1-diyl))bis(N,N-dimethylmethanamine)]	68.7
CN(C)[C@H]1CC[C@H](Oc2ccc3nc(-c4ccc(-c5nc6ccc(O[C@H]7CC[C@H](N(C)C)CC7)cc6[nH]5)cc4)[nH]c3c2)CC1 [Compound 219]	18.1
CN(C)CCCCc1ccc2nc(-c3ccc(-c4nc5ccc(CCCCN(C)C)cc5[nH]4)cc3)[nH]c2c1 [Compound 220, 4,4′-(2,2′-(1,4-phenylene)bis(1H-benzo[d]imidazole-6,2-diyl))bis(N,N-dimethylbutan-1-amine)]	> 200
CN(C)CCCOc1ccc2nc(-c3ccc(-c4nc5ccc(OCCCO)cc5[nH]4)cc3)[nH]c2c1 [Compound 222, 3-((2-(4-(5-(3-(dimethylamino)propoxy)-1H-benzo[d]imidazol-2-yl)phenyl)-1H-benzo[d]imidazol-5-yl)oxy)propan-1-ol]	95.3
OCCCOc1ccc2nc(-c3ccc(-c4nc5ccc(OCCCO)cc5[nH]4)cc3)[nH]c2c1 [Compound 223, 3,3′-((1,4-phenylenebis(1H-benzo[d]imidazole-2,5-diyl))bis(oxy))bis(propan-1-ol)]	> 200
CN(C)CCCOc1ccc2nc(-c3ccc(-c4nc5ccc(OCCCCO)cc5[nH]4)cc3)[nH]c2c1 [Compound 224]	63.4
OCCCCOc1ccc2nc(-c3ccc(-c4nc5ccc(OCCCCO)cc5[nH]4)cc3)[nH]c2c1 [Compound 225]	154
CN(C)CC#CCOc1ccc2nc(-c3ccc(-c4nc5ccc(OCC#CCN(C)C)cc5[nH]4)cc3)[nH]c2c1 [Compound 226, 4,4′-((2,2′-(1,4-phenylene)bis(1H-benzo[d]imidazole-6,2-diyl))bis(oxy))bis(N,N-dimethylbut-2-yn-1-amine)]	> 200
CN(C)Cc1cn(CCOc2ccc3nc(-c4ccc(-c5nc6ccc(OCCn7cc(CN(C)C)nn7)cc6[nH]5)cc4)[nH]c3c2)nn1 [Compound 227]	120
CN(C)CCCOc1ccc2nc(-c3ccc(-c4nc5ccc(SCCCN(C)C)cc5[nH]4)cc3)[nH]c2c1 [Compound 228, 3-((2-(4-(6-(3-(dimethylamino)propoxy)-1H-benzo[d]imidazol-2-yl)phenyl)-1H-benzo[d]imidazol-6-yl)thio)-N,N-dimethylpropan-1-amine]	47.1
N#Cc1ccc(Oc2ccc3nc(-c4ccc(-c5nc6ccc(Oc7ccc(C#N)cc7)cc6[nH]5)cc4)[nH]c3c2)cc1 [Compound 229, 4,4′-((2,2′-(1,4-phenylene)bis(1H-benzo[d]imidazole-6,2-diyl))bis(oxy))dibenzonitrile]	> 200
N#Cc1cccc(Oc2ccc3nc(-c4ccc(-c5nc6ccc(Oc7cccc(C#N)c7)cc6[nH]5)cc4)[nH]c3c2)c1 [Compound 230, 3,3′-((2,2′-(1,4-phenylene)bis(1H-benzo[d]imidazole-6,2-diyl))bis(oxy))dibenzonitrile]	> 200
CN(C)CCCOc1ccc2nc(-c3ccc(-c4nc5ccc(C(=O)NCCN6CCCC6)cc5[nH]4)cc3)[nH]c2c1 [Compound 232, 2-(4-(6-(3-(dimethylamino)propoxy)-1H-benzo[d]imidazol-2-yl)phenyl)-N-(2-(pyrrolidin-1-yl)ethyl)-1H-benzo[d]imidazole-6-carboxamide]	25
CN(C)C/C=C/COc1ccc2nc(-c3ccc(-c4nc5ccc(OC/C=C/CN(C)C)cc5[nH]4)cc3)[nH]c2c1 [Compound 233, (2E,2′E)-4,4′-((2,2′-(1,4-phenylene)bis(1H-benzo[d]imidazole-6,2-diyl))bis(oxy))bis(N,N-dimethylbut-2-en-1-amine)]	39.5
NCc1cccc(Oc2ccc3nc(-c4ccc(-c5nc6ccc(Oc7cccc(CN)c7)cc6[nH]5)cc4)[nH]c3c2)c1 [Compound 234, (((2,2′-(1,4-phenylene)bis(1H-benzo[d]imidazole-6,2-diyl))bis(oxy))bis(3,1-phenylene))dimethanamine]	39.8
CN(C)CCCOc1ccc2nc(-c3ccc(-c4nc5ccc(OCCCN=[N+]=[N-])cc5[nH]4)cc3)[nH]c2c1 [Compound 235, 3-((2-(4-(6-(3-azidopropoxy)-1H-benzo[d]imidazol-2-yl)phenyl)-1H-benzo[d]imidazol-6-yl)oxy)-N,N-dimethylpropan-1-amine]	78.2
NCc1ccc(Oc2ccc3nc(-c4ccc(-c5nc6ccc(Oc7ccc(CN)cc7)cc6[nH]5)cc4)[nH]c3c2)cc1 [Compound 236, (((2,2′-(1,4-phenylene)bis(1H-benzo[d]imidazole-6,2-diyl))bis(oxy))bis(4,1-phenylene))dimethanamine]	62.1
CN(C)CCCOc1ccc2nc(-c3ccc(-c4nc5ccc(C(=O)NCCN6CCCCC6)cc5[nH]4)cc3)[nH]c2c1 [Compound 237, 2-(4-(6-(3-(dimethylamino)propoxy)-1H-benzo[d]imidazol-2-yl)phenyl)-N-(2-(piperidin-1-yl)ethyl)-1H-benzo[d]imidazole-6-carboxamide]	26
CN(C)CCCOc1ccc2nc(-c3ccc(-c4nc5ccc(C(=O)NCCN(C)C)cc5[nH]4)cc3)[nH]c2c1 [Compound 238]	10
CN(C)CCCNC(=O)c1ccc2nc(-c3ccc(-c4nc5ccc(OCCCN(C)C)cc5[nH]4)cc3)[nH]c2c1 [Compound 239]	24.8
